Assay in all cases: biochemical
What all share (set-up): Thermo Fisher SelectScreen kinase panel: Z'-LYTE and Adapta activity, LanthaScreen binding
(Time-resolved FRET reads energy transfer from a long-lived donor to a nearby acceptor.)

The target of one assay is T1, CHK1 (Homo sapiens, UniProt O14757).
T1 construct: gene CHEK1
On the procedure:
(§1) 5 88 GNE684 was tested in Thermo Fisher Scientific SelectScreen assay (Madison, WI) 89 against 221 representative kinases at a concentration of 10 µM, which is 476-fold greater than the Ki app 90 for GNE684 against human RIP1 in the RIP1 enzyme 91 assay. The kinase assays were carried out using Z'-LYTE and Adapta activity and 92 LanthaScreen binding assays (Thermo Fisher Scientific, Madison WI) following 93 protocols developed and performed by Thermo Fisher Scientific 94 (https://www.thermofisher.com/us/en/home/products-and-services/services/custom-95 services/screening-and-profiling-services/selectscreen-profiling-service/selectscreen-96 kinase-profiling-service.html). 97 GNE684 was also tested against 468 kinases in the KINOMEscan scanMAX kinase 98 binding assay panel at a concentration of 10 µM following protocols developed and 99 performed by DiscoverX (http://www.discoverx.com/kinase_profiling).

Another assay concerns the target HIPK2 (Homo sapiens, UniProt Q9H2X6). The method, then:
as §1

The target of a further assay is T2, PKC_delta (Homo sapiens, UniProt Q05655).
T2 construct: gene PRKCD
The method, then:
as §1

For another assay, the target named is CLK3 (Homo sapiens, UniProt P49761). On the procedure: as §1
For another assay, the target named is PAK3 (Homo sapiens, UniProt O75914). On the procedure:
as §1

The target in a further assay is LCK (Homo sapiens, UniProt P06239). On the procedure:
as §1

Another assay has as its target T3, TAO2 (Homo sapiens, UniProt Q9UL54).
T3 construct: gene TAOK2
The method, then:
as §1

A further assay addresses T4, IKK-alpha (Homo sapiens, UniProt O15111).
T4 construct: gene CHUK
The method, then:
as §1

In the next assay the target is PAK6 (Homo sapiens, UniProt Q9NQU5). The method, then:
as §1

Another assay addresses T5, TRKB (Homo sapiens, UniProt Q16620).
T5 construct: gene NTRK2
On the procedure:
as §1

A further assay deals with MAPKAPK3 (Homo sapiens, UniProt Q16644). On the procedure:
as §1

In a further assay the target is INSR (Homo sapiens, UniProt P06213). On the procedure:
as §1

The target of the next assay is T6, MEKK2 (Homo sapiens, UniProt Q9Y2U5).
T6 construct: gene MAP3K2
The method, then: as §1

Another assay deals with T7, CDK5/p25 (Homo sapiens, UniProt Q00535).
T7 construct: p25
The method, then: as §1

Another assay addresses BTK (Homo sapiens, UniProt Q06187). On the procedure:
as §1

The target in a further assay is DAPK1 (Homo sapiens, UniProt P53355). The method, then: as §1
The next assay concerns the target FLT4 (Homo sapiens, UniProt P35916). On the procedure: as §1
Another assay addresses T8, PKA (Homo sapiens, UniProt P17612).
T8 construct: gene PRKACA
On the procedure:
as §1

A further assay addresses IRAK1 (Homo sapiens, UniProt P51617). The method, then: as §1
The next assay deals with SPHK1 (Homo sapiens, UniProt Q9NYA1). The method, then:
as §1

A further assay deals with MET (Homo sapiens, UniProt P08581). The method, then:
as §1

For the next assay, the target named is T9, Rse (Homo sapiens, UniProt Q06418).
T9 construct: gene TYRO3
The method, then: as §1

The next assay has as its target DDR1 (Homo sapiens, UniProt Q08345). The method, then: as §1

Consider one compound from paper PMC7206119, “RIP1 inhibition blocks inflammatory diseases but not tumor growth or metastases” (Cell Death and Differentiation, 2019).

MAPKAPK3, sequence (Q16644 whole entry): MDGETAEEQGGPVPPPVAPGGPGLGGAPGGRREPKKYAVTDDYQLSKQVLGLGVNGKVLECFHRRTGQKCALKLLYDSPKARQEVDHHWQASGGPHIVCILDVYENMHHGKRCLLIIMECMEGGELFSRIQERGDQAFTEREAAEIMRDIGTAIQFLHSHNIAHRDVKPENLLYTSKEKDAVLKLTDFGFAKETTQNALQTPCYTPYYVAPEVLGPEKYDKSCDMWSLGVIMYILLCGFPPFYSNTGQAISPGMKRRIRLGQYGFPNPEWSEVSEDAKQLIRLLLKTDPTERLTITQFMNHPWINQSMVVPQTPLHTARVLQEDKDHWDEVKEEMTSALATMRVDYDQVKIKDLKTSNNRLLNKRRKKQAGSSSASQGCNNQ
HIPK2, sequence (Q9H2X6 whole entry): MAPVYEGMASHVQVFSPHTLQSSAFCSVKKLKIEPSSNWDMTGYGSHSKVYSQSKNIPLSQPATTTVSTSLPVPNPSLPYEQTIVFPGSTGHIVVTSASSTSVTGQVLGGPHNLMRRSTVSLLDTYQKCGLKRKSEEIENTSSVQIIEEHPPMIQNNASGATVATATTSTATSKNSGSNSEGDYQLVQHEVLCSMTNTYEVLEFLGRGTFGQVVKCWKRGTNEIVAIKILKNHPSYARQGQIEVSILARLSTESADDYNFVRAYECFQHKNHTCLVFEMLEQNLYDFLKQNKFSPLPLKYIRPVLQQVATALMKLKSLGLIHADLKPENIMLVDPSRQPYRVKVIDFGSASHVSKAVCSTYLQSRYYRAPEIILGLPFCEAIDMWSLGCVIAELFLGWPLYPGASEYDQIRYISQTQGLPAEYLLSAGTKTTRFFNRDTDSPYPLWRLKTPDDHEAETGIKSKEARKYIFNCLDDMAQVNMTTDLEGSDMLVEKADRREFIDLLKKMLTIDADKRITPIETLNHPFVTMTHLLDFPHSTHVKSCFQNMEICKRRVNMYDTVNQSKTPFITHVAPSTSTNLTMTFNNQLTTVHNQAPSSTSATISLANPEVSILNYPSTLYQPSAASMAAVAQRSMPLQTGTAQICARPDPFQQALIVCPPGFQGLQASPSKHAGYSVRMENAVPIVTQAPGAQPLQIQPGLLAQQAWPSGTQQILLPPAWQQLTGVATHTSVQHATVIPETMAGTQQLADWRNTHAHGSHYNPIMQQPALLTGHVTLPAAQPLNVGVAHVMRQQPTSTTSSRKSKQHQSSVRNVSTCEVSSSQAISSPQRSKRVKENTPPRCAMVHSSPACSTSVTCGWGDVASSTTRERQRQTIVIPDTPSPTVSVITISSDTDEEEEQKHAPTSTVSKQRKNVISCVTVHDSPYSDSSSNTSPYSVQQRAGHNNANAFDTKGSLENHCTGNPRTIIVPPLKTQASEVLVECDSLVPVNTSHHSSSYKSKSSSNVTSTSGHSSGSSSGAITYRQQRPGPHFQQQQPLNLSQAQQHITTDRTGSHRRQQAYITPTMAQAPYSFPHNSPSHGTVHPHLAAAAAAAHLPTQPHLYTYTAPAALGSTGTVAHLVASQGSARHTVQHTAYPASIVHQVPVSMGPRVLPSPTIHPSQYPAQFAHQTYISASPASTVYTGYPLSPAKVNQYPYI
BTK, sequence (Q06187 whole entry): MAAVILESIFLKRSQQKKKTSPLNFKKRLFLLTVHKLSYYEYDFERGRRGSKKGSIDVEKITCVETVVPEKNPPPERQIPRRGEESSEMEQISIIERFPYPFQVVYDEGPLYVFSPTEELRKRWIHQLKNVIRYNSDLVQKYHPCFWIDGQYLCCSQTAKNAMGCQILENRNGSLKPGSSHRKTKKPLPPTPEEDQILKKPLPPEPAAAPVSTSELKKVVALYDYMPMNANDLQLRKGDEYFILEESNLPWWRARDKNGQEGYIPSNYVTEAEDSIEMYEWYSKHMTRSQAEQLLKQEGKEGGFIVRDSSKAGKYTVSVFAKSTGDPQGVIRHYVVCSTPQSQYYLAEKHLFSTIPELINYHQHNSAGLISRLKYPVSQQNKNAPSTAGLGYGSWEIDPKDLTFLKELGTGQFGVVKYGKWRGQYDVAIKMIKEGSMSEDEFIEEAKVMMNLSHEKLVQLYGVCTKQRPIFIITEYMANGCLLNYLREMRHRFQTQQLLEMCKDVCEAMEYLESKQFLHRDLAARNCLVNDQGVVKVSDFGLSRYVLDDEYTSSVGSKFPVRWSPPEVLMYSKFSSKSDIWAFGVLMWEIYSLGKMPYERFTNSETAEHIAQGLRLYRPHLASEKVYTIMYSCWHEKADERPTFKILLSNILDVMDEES
T9 sequence (Q06418 whole entry): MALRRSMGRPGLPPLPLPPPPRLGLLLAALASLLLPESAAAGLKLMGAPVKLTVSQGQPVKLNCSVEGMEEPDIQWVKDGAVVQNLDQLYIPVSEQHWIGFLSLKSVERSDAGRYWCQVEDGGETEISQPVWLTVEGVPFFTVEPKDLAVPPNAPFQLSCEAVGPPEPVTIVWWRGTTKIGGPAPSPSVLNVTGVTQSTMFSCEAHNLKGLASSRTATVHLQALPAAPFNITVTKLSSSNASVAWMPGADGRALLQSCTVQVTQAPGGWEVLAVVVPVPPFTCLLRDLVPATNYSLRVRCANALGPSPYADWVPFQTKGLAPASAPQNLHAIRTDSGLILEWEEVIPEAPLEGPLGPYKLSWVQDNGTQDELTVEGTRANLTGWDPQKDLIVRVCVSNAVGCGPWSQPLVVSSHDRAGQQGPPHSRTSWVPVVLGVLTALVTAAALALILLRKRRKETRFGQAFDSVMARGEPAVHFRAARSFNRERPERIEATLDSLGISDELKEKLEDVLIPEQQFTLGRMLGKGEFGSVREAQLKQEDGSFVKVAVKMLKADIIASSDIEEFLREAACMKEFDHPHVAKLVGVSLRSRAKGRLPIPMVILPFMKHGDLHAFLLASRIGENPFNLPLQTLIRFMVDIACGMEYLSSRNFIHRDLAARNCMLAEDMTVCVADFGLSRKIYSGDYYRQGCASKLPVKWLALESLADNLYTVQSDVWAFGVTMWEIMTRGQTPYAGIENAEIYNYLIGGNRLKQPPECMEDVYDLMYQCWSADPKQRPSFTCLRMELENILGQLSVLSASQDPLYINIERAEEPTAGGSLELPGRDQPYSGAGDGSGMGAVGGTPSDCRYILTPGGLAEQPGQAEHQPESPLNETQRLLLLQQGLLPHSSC
T5 sequence (Q16620 whole entry): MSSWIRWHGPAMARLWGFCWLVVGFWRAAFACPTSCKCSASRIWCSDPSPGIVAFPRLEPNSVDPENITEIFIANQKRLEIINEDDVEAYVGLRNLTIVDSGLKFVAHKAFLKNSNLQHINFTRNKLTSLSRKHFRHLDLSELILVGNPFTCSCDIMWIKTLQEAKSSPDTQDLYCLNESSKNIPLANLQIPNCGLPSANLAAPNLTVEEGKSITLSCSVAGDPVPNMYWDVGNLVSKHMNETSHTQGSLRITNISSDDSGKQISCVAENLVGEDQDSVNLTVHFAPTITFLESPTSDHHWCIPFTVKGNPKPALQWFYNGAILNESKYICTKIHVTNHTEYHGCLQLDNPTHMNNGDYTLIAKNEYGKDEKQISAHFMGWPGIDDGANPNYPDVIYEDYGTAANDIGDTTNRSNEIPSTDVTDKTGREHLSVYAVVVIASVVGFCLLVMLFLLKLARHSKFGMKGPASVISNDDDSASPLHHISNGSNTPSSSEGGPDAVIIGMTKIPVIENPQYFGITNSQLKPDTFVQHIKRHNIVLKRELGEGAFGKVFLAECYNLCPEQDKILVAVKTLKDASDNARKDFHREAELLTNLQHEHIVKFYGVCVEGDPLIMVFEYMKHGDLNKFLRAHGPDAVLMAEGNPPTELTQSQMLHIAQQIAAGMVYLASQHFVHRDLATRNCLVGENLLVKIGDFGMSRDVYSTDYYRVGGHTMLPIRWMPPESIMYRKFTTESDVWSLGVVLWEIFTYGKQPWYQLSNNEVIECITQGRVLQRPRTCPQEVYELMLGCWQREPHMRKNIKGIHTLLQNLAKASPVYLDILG
CLK3, sequence (P49761 whole entry): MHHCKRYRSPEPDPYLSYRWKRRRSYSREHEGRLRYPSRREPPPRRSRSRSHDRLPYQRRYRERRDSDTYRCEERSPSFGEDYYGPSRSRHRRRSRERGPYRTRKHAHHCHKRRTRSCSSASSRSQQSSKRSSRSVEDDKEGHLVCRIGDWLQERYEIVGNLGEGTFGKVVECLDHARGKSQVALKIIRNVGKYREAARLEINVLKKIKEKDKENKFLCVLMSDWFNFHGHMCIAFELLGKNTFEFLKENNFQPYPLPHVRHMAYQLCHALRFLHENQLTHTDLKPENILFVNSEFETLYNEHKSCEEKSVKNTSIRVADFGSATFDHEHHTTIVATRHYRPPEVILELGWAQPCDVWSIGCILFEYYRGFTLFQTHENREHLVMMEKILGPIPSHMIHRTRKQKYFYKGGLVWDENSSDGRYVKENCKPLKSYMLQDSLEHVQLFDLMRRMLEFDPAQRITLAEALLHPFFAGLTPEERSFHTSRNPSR
T7 sequence (Q00535 whole entry): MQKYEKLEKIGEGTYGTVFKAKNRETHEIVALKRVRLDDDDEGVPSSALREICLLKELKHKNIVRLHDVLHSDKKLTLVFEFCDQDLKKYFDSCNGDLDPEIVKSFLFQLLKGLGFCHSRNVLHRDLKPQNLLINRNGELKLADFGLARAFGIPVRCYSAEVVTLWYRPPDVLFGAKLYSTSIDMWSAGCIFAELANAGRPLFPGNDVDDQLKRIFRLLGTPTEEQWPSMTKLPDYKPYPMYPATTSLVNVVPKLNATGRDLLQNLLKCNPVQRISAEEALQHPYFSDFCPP
T7 sequence (Q15078 whole entry partner): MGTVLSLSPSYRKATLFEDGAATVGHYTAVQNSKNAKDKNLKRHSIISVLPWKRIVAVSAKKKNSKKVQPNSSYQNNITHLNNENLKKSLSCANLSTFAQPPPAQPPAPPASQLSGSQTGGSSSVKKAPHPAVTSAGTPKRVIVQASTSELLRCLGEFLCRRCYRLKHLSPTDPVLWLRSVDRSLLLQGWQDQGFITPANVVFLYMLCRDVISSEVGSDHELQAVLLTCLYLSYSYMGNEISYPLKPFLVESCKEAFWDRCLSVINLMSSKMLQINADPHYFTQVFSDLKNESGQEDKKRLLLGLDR

Usually inhibition stands for the change of the read-out against control, counted positive when it falls. As for `COc1cc2c(cn1)N(C)C(=O)[C@@H](NC(=O)c1nc3n(n1)[C@H](c1ccccc1)CC3)CC2` [GNE684, (S)-N-((S)-7-methoxy-1-methyl-2-oxo-2,3,4,5-tetrahydro-1H-pyrido[3,4-b]azepin-3-yl)-5-phenyl-6,7-dihydro-5H-pyrrolo[1,2-b][1,2,4]triazole-2-carboxamide], the inhibition at 10 µM at CHK1 is -7%; at HIPK2, -1.5%; on PKC_delta, 8%; on CLK3, 1.5%; on PAK3 it was 6%; at LCK, 5%. Also, the inhibition at 10 µM was 1% at TAO2; -3% at IKK-alpha; 4.5% at PAK6; -5% on TRKB; 3% at MAPKAPK3; 3.5% on INSR. The inhibition at 10 µM is 7% on MEKK2; 4.5% at CDK5/p25; -3.5% on BTK; -11.5% at DAPK1; 14% at FLT4; 1% on PKA. Besides, the inhibition at 10 µM on IRAK1 was -10.5%; at SPHK1 it was 4.5%; at MET, -2%; at Rse, 5%; on DDR1, 4.5%.
